Usually IC50 stands for the midpoint of a concentration-inhibition curve. A higher IC50 goes with lower potency.

The target in assay [1] is 5'-nucleotidase (Homo sapiens, UniProt P21589). Kind of assay: Ecto-5'-Nucleotidase Inhibition Assay. Particulars: pH 7.4; 37 °C. As for the experimental part:
(§1) The enzymatic assay of both human and rat ecto-5'-nucleotidase were performed with slight modifications in the previously described method. […] Aliquots of 50 μL of each reaction mixture was transferred into CE mini vial and hydrodynamically injected into the capillary by using pressure of 0.5 psi for 5s. The electrosmatic separation of substrate and product peaks occurred by applying voltage of 15 kV. The concentration of product i.e. adenosine was estimated by calculating the area under its absorbance peak at 260 nm.

Assay [2] has as its target T1, 5'-nucleotidase (Rattus norvegicus, UniProt P21588).
T1 sequence (P21588 whole entry): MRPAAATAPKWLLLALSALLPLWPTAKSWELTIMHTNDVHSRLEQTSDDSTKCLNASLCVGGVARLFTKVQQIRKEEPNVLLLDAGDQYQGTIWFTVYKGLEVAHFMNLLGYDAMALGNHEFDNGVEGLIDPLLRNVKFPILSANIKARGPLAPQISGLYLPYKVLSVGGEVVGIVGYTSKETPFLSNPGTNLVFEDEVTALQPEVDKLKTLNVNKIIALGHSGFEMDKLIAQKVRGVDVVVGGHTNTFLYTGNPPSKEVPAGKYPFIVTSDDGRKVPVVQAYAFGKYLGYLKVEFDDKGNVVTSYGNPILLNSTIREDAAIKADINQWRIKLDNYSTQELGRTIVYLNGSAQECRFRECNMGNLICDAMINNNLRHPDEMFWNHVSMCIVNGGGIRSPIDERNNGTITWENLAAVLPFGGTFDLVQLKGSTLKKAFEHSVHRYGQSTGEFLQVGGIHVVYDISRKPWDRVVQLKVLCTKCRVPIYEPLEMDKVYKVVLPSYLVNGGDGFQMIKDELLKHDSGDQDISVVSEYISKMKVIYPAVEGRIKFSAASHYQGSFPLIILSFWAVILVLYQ
Kind of assay: Ecto-5'-Nucleotidase Inhibition Assay. Conditions: pH 7.4; 37 °C. As for the experimental part:
as §1

Assay [3] concerns the target T2, Alkaline phosphatase, tissue-nonspecific isozyme (Bos taurus, UniProt P09487).
T2 sequence (P09487 whole entry): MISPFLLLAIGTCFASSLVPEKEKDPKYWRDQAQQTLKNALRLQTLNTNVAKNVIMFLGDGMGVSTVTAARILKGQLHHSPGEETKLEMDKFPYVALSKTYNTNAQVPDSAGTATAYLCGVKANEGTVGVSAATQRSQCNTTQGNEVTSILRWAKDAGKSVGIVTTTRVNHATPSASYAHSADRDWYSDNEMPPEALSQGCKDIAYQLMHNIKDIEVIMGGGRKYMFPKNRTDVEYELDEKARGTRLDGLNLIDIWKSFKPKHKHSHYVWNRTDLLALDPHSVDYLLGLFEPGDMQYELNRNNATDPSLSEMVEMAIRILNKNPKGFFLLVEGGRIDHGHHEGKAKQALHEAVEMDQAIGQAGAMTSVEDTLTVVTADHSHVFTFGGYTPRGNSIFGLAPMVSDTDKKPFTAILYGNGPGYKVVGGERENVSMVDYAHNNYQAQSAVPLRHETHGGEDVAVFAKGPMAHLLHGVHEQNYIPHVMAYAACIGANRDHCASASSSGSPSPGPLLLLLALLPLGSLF
In words: Alkaline Phosphatase Inhibition Assay. Conditions: pH 9.8; 37 °C. As for the experimental part:
(§2) The assay conditions were optimized with some changes in formerly reported spectrophotometric method. The composition of assay buffer of pH 9.8 was as: […], 0.05 mM ZnCl2 and 2.5 mM MgCl2. All compounds were tested at the initial concentration of 0.2 mM. A total assay volume of 50 μL contained 10 μL of tested compound, followed by the addition of 20 μL of either b-TNAP (1:800 times diluted enzyme in assay buffer) or 20 μL of c-IAP (1:800 times diluted enzyme in same assay buffer). After incubating the reaction mixture for 3-5 minutes at 37 °C, pre-read was taken by measuring luminescence with the help of microplate reader (BioTek FLx800, Instruments, Inc. USA). After that, 20 μL of substrate (CDP-Star) at the concentration of (110 μM) was added to the reaction mixture. Then the reaction mixture was again incubated for 15-20 min at 37 °C and after read was taken to measure the change in the luminescence. Total activity control (without inhibitor or negative control) was used for comparison of the activity of each test compound. L-phenylalanine (at concentration of 4 mM per well) and Levamisole (at concentration of 2 mM per well) were used as reference standards against calf intestinal alkaline phosphatase (c-IAP) and bovine tissue-nonspecific alkaline phosphatase (b-TNAP) respectively.

For assay [4], the target named is Intestinal-type alkaline phosphatase (Bos taurus, UniProt P19111). Kind of assay: Alkaline Phosphatase Inhibition Assay. Conditions: pH 9.8; 37 °C. As for the experimental part: as §2
Sequence of Intestinal-type alkaline phosphatase (P19111 whole entry): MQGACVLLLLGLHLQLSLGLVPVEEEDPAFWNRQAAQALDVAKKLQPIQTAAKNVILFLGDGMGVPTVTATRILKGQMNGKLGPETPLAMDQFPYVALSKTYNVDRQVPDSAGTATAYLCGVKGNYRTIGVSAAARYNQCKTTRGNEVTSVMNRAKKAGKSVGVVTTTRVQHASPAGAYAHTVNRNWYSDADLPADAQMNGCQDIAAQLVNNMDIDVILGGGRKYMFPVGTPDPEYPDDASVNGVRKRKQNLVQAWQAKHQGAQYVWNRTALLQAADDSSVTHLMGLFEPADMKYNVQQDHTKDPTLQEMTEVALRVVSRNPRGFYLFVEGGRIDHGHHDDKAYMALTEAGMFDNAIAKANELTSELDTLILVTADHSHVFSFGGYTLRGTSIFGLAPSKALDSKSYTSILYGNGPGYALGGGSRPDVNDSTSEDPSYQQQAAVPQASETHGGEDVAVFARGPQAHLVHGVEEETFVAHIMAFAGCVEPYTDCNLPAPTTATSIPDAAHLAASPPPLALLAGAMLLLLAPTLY

Sequence of 5'-nucleotidase (Homo sapiens, UniProt P21589) (P21589 whole entry): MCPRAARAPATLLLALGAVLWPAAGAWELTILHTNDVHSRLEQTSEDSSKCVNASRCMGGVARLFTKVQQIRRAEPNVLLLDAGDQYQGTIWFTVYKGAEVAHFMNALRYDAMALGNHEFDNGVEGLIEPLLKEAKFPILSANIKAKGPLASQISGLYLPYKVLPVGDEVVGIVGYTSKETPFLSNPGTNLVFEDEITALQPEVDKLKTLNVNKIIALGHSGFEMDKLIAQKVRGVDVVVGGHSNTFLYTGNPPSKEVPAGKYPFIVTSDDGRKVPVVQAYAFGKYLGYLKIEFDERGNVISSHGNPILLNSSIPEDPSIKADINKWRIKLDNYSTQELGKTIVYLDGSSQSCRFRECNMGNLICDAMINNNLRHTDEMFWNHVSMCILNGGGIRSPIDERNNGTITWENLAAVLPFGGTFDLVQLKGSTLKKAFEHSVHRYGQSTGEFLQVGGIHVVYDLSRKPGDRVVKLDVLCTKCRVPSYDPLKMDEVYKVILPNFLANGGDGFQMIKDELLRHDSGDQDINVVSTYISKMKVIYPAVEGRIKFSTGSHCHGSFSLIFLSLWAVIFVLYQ

Take `C/C(=N\NC(=O)c1ccncc1)N1N=C(c2ccc(F)cc2)CC1c1ccccc1` (stereo not given) [(E)-N'-(1-(3-(4-fluorophenyl)-5-phenyl-4,5-dihydro-1H-pyrazol-1yl)ethylidene)isonicotino hydrazide (3j)]: the IC50 in assay [1] stood at 190 nM; in assay [2] it was 360 nM; in assay [3], 1060 nM; in assay [4], 3980 nM.
`O=C(N/N=C/c1ccccc1O)c1ccncc1` [(E)-N'-(2'-hydroxybenzylidene)isonicotinohydrazide (3e)]: the results for the IC50 in assay [1], in assay [2] and in assay [4] were 1340 nM, 450 nM and 1440 nM, respectively.
`O=C(N/N=C/c1cccc([N+](=O)[O-])c1)c1ccncc1` [(E)-N'-(3'-Nitrobenzylidene)isonicotinohydrazide (3f)]: the IC50 in assay [1] came to 1900 nM; in assay [2], 210 nM; in assay [3], 1820 nM; in assay [4], 7340 nM.
The like results for `O=C(N/N=C/c1ccc(Br)cc1)c1ccncc1` [(E)-N'-(4'-Bromobenzylidene)isonicotinohydrazide (3b)] were, in that order, 230 nM, 7130 nM, 4130 nM and 9720 nM.
For the compound `O=C(N/N=C/c1ccc(Cl)cc1)c1ccncc1` [(E)-N'-(4'-Chlorobenzylidene)isonicotinohydrazide (3a)], the IC50 in assay [1] was 1670 nM; in assay [2], 1080 nM; in assay [4], 670 nM.
Take `O=C(N/N=C/c1ccc(F)cc1)c1ccncc1` [(E)-N'-(4'-Fluorobenzylidene)isonicotinohydrazide (3c)]: the IC50 was 6760 nM in assay [1], 440 nM in assay [2], 2260 nM in assay [3] and 17500 nM in assay [4].
Consider `COc1cc(/C=N/NC(=O)c2ccncc2)ccc1O` [(E)-N'-(4'-Hydroxy-3-methoxybenzylidene)isonicotinohydrazide (3g)], for which the IC50 in assay [3] came out at 350 nM; in assay [4], 1920 nM.
`COc1ccc(/C=N/NC(=O)c2ccncc2)cc1` [(E)-N'-(4'-Methoxybenzylidene)isonicotinohydrazide (3d)]: the IC50 was found to be 13800 nM in assay [1], 310 nM in assay [2], 560 nM in assay [3] and 1740 nM in assay [4].
Taken in the same sequence, the figures for `O=C(N/N=C/c1cccnc1)c1ccncc1` [(E)-N'-(Pyridin-3'-ylmethylene)isonicotinohydrazide (3i)] were 210 nM, 3010 nM, 2430 nM and 1460 nM.
As to `O=C(N/N=C/c1ccncc1)c1ccncc1` [(E)-N'-(Pyridin-4'-ylmethylene)isonicotinohydrazide (3h)], the IC50 in assay [1] was 2120 nM; in assay [2], 2890 nM; in assay [4] it was 2460 nM.

Values taken from BindingDB's records for doi:10.1111/cbdd.12861 (Quaid-i-Azam University, 2017).
